Results on five compounds are retold here after patent publication US11970576B2, “Beta-peptido sugar-copolymer” (NANYANG TECHNOLOGICAL UNIVERSITY, priority 2017, dated 2024).

In series [1] the test system is methicillin-resistant S. aureus (BAA-40). The series is classed as cell-based. As to the method:
(§1) Antimicrobial activity of block-like copolymers PDGu(x)-b-PBLK(y) against a panel of bacteria including both Gram-positive (S. aureus and B. subtilis) and Gram-negative (E. coli) in terms of minimal inhibition concentration (MIC) were tested. […] The activity was decreased with the increase of sugar ratio. This is reasonable when considering the killing domains became less.

Series [2] has as its system E. coli (ATCC 8739). The series is classed as cell-based. How it is done:
as §1

Series [3] relates to S. aureus (ATCC 29213). It is filed as cell-based. How it is done: as §1
For series [4], the system named is human red blood cells. Briefly: Erythrocyte compatibility assay (hemolysis). How it is done:
Toxicity towards mammalian cells was another vital factor for bio-applications. […] Erythrocyte compatibility assay calculating the lysis of human red blood cells (HC10, concentration of polymers causing 10% human red blood cells lysed) was performed to characterize the in vitro biocompatibility.

Series [5] deals with MRSA USA300. Briefly: In vivo murine excision wound model. On the set-up: species or system Staphylococcus aureus. From the text: Staphylococcus aureus is the most common cause for skin and soft tissue infections (SSTIs). Among those, up to three quarter are caused by community-associated MRSA (CA-MRSA). MRSA USA300 is a significant CA-MRSA pathogen in the US. According to Centers for Disease Control and Prevention of US, 212 out of 218 MRSA isolates were type USA300. To further test the in vivo efficacy of PDGu(10)-b-PBLK(10) against the clinically significant pathogen MRSA USA300, a mice wound excision model was adopted using 8 weeks female C57BL6 mice. […] This could be attributed to the excellent antibacterial efficacy of the β-peptido sugar-copolymer in vivo.
The in vivo efficacy of PDGu(10)-b-PBLK(10) was further tested against MRSA USA 300 with a murine excision wound model using two infection durations with treatments applied either 4 hour or 24 hour post infection. For treatment applied 4 hour post infection, the β-peptido sugar-copolymer achieves a log reduction of 4.1 (FIG. 8a), which is slightly better than vancomycin, which has a log reduction of 3.7. […] In contrast, vancomycin treatment only achieves 2.0 log reduction of the bacteria burden at the wound site (p≤0.01). The excellent in vivo antibacterial efficacy of PDGu(10)-b-PBLK(10) may be correlated to its outstanding in vitro killing kinetics and anti-biofilm bacteria property.
Female C57BL6 mice (Invivos, Singapore) aged 8 weeks were used for excision wound model to evaluate in vivo antimicrobial efficacy of the β-peptido sugar-copolymer. All mice were housed on a 12 hour light-dark cycle at room temperature for one week prior to the experiment. Mice (n=7 per group) were anesthetized using isoflurane and hair from the back was removed with a shaver and sterile scalpel blade. The shaved area was further sterilized using 70% ethanol and a 5 mm diameter excision wound was created using a biopsy punch. In t=4 hour post infection model, 2.5 μL MRSA USA300 in PBS suspension (5×10^5 CFU/mL) was added to wound site and covered by Tegaderm (3M™) to protect from contamination. […]

In brackets after ≈: the same amount, converted by molar mass. Where a SMILES comes first, the peptide text is derived from it.

In the case of `CC[C@H](C)[C@H](NC(=O)[C@H](CCCCN)NC(=O)[C@H](CCC(=O)O)NC(=O)[C@H](CCCCN)NC(=O)[C@H](CO)NC(=O)[C@H](CCCCN)NC(=O)[C@H](CCCNC(=N)N)NC(=O)[C@H](Cc1ccccc1)NC(=O)[C@H](Cc1ccccc1)NC(=O)[C@H](CC(=O)O)NC(=O)CNC(=O)[C@H](CC(C)C)NC(=O)[C@@H](N)CC(C)C)C(=O)NCC(=O)N[C@@H](CCCCN)C(=O)N[C@@H](CCC(=O)O)C(=O)N[C@@H](Cc1ccccc1)C(=O)N[C@@H](CCCCN)C(=O)N[C@@H](CCCNC(=N)N)C(=O)N[C@H](C(=O)N[C@H](C(=O)N[C@@H](CCC(N)=O)C(=O)N[C@@H](CCCNC(=N)N)C(=O)N[C@H](C(=O)N[C@@H](CCCCN)C(=O)N[C@@H](CC(=O)O)C(=O)N[C@@H](Cc1ccccc1)C(=O)N[C@@H](CC(C)C)C(=O)N[C@@H](CCCNC(=N)N)C(=O)N[C@@H](CC(N)=O)C(=O)N[C@@H](CC(C)C)C(=O)N[C@H](C(=O)N1CCC[C@H]1C(=O)N[C@@H](CCCNC(=N)N)C(=O)N[C@H](C(=O)N[C@@H](CCC(=O)O)C(=O)N[C@@H](CO)C(=O)O)[C@@H](C)O)C(C)C)[C@@H](C)CC)C(C)C)[C@@H](C)CC` [LL37], the “MIC MRSA” value in series [1] is more than 512 µg/mL.

Regarding `CC[C@H](C)[C@H](NC(=O)CN)C(=O)NCC(=O)N[C@@H](CCCCN)C(=O)N[C@@H](Cc1ccccc1)C(=O)N[C@@H](CC(C)C)C(=O)N[C@@H](Cc1c[nH]cn1)C(=O)N[C@@H](CO)C(=O)N[C@@H](C)C(=O)N[C@@H](CCCCN)C(=O)N[C@@H](CCCCN)C(=O)N[C@@H](Cc1ccccc1)C(=O)NCC(=O)N[C@@H](CCCCN)C(=O)N[C@@H](C)C(=O)N[C@@H](Cc1ccccc1)C(=O)N[C@H](C(=O)NCC(=O)N[C@@H](CCC(=O)O)C(=O)N[C@H](C(=O)N[C@@H](CCSC)C(=O)N[C@@H](CC(N)=O)C(=O)N[C@@H](CO)C(=O)O)[C@@H](C)CC)C(C)C` [Magainin 2] (H-GIGKFLHSAKKFGKAFVGEIMNS-OH), the “MIC E. coli” value in series [2] came to 64 µg/mL (≈ 25.9 µM). Also, the “MIC SA 29213” value in series [3] is more than 512 µg/mL. In series [1], the “MIC MRSA” value is more than 512 µg/mL. Further, the “HC10 RBC (concentration causing 10% human red blood cells lysed)” value in series [4] was more than 500 µg/mL.

`CC[C@H](C)[C@H](NC(=O)CN)C(=O)NCC(=O)N[C@@H](C)C(=O)N[C@H](C(=O)N[C@@H](CC(C)C)C(=O)N[C@@H](CCCCN)C(=O)N[C@H](C(=O)N[C@@H](CC(C)C)C(=O)N[C@H](C(=O)N[C@H](C(=O)NCC(=O)N[C@@H](CC(C)C)C(=O)N1CCC[C@H]1C(=O)N[C@@H](C)C(=O)N[C@@H](CC(C)C)C(=O)N[C@H](C(=O)N[C@@H](CO)C(=O)N[C@@H](Cc1c[nH]c2ccccc12)C(=O)N[C@H](C(=O)N[C@@H](CCCCN)C(=O)N[C@@H](CCCNC(=N)N)C(=O)N[C@@H](CCCCN)C(=O)N[C@@H](CCCNC(=N)N)C(=O)N[C@@H](CCC(N)=O)C(=O)N[C@@H](CCC(N)=O)C(N)=O)[C@@H](C)CC)[C@@H](C)CC)[C@@H](C)O)[C@@H](C)O)C(C)C)C(C)C` [Melittin]: the “HC10 RBC (concentration causing 10% human red blood cells lysed)” value in series [4] was found to be 8 µg/mL.

Turning to `CN[C@H](CC(C)C)C(=O)N[C@H]1C(=O)N[C@@H](CC(N)=O)C(=O)N[C@H]2C(=O)N[C@H]3C(=O)N[C@H](C(=O)N[C@H](C(=O)O)c4cc(O)cc(O)c4-c4cc3ccc4O)[C@H](O)c3ccc(c(Cl)c3)Oc3cc2cc(c3O[C@@H]2O[C@H](CO)[C@@H](O)[C@H](O)[C@H]2O[C@H]2C[C@](C)(N)[C@H](O)[C@H](C)O2)Oc2ccc(cc2Cl)[C@H]1O` [vancomycin], the “in vivo activity compared with the β-peptido sugar-copolymer” value in series [5] (mice wound excision model, MRSA USA300) is “does not show superior activity”. For the same compound, the “log reduction of MRSA USA300” value in series [5] (treatment applied 4 hour post infection, single dose 2.5 mg/kg (FIG. 8a)) was 3.7 log. In series [5] (treatment initiated 24 hour post infection, three times with 4-hour interval, 2.5 mg/kg (FIG. 8b)), the “log reduction of total bacteria count” value was determined as 2.0 log.

With Polymyxin B, the “MIC E. coli” value in series [2] was 2 µg/mL. In series [3], the “MIC SA 29213” value was 32 µg/mL. In addition, the “MIC MRSA” value in series [1] is 64 µg/mL. Further, the “HC10 RBC (concentration causing 10% human red blood cells lysed)” value in series [4] is more than 2500 µg/mL.
